Results: ChEMBL document CHEMBL4715760, “Balancing potency, metabolic stability and permeability in pyrrolopyrimidine-based EGFR inhibitors” (Eur J Med Chem, 2016)
pIC50: −log10 of the molar value.

Columns and labels:
[1] = target: T1, Ephrin type-A receptor 1 (Homo sapiens) (UniProt P21709); assay: Inhibition of recombinant human GST-tagged EPHA1 (568 to 976 residues) expressed in baculovirus expression system at 500 nM using Tyr 02 peptide as substrate incubated for 1 hr in presence of ATP at its Km concentration by Z'-LYTE assay relative to control
T1 sequence (whole entry): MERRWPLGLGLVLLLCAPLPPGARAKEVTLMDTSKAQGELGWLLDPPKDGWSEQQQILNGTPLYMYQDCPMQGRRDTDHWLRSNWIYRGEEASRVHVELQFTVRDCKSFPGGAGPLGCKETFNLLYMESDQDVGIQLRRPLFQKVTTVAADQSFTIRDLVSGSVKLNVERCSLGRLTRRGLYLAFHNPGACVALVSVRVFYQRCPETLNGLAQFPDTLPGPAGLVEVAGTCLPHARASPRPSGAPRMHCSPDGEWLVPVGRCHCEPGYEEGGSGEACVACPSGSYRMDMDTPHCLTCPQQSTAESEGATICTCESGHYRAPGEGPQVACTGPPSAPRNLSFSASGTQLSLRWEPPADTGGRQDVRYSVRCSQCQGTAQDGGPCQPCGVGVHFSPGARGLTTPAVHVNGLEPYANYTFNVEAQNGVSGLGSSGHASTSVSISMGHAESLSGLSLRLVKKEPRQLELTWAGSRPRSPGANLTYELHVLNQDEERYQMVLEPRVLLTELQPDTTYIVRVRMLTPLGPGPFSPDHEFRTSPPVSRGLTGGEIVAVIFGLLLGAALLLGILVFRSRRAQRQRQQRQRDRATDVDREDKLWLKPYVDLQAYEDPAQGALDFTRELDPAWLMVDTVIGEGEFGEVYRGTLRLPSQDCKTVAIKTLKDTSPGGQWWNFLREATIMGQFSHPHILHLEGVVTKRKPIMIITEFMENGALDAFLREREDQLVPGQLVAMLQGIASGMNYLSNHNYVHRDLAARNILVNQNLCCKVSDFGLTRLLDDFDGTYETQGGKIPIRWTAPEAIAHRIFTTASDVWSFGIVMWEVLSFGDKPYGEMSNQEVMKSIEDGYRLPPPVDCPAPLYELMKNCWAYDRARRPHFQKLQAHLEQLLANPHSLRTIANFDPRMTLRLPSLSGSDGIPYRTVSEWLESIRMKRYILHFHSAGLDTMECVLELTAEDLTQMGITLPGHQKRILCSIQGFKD

[2] = target: Dual specificity mitogen-activated protein kinase kinase 1 (Homo sapiens) (UniProt Q02750); assay: Inhibition of recombinant full length human His-tagged MAP2K1 expressed in baculovirus expression system at 500 nM using Ser/Thr 03 as substrate incubated for 1 hr in presence of ATP at its Km concentration by Z'-LYTE assay relative to control
[3] = target: Vascular endothelial growth factor receptor 1 (Homo sapiens) (UniProt P17948); assay: Inhibition of recombinant human GST-tagged FLT1 catalytic domain (781 to 1338 residues) expressed in baculovirus expression system at 500 nM using Tyr 04 peptide as substrate incubated for 1 hr in presence of ATP at its Km concentration by Z'-LYTE assay relative to control
[4] = target: Tyrosine-protein kinase Yes (Homo sapiens) (UniProt P07947); assay: Inhibition of full length recombinant GST-tagged human YES1 expressed in baculovirus expression system at 500 nM using Tyr 02 as substrate incubated for 1 hr in presence of ATP at its Km concentration by Z'-LYTE assay relative to control
[5] = target: Platelet-derived growth factor receptor alpha (Homo sapiens) (UniProt P16234); assay: Inhibition of recombinant human GST-tagged PDGFRalpha (550 to 1089 residues) expressed in baculovirus expression system at 500 nM using Tyr 04 as substrate incubated for 1 hr in presence of ATP at its Km concentration by Z'-LYTE assay relative to control
[6] = target: T2, Epidermal growth factor receptor (Homo sapiens, UniProt P00533); conditions: dose 100.0 nM, time 1.0 hrs
[7] = target: T2, Epidermal growth factor receptor; assay: Inhibition of EGFR (unknown origin) using Tyr 04 peptide as substrate incubated for 1 hr by Z'-LYTE assay
[8] = target: Inhibitor of nuclear factor kappa-B kinase subunit beta (Homo sapiens) (UniProt O14920); assay: Inhibition of recombinant human full-length GST-tagged IKBKB expressed in baculovirus expression system at 500 nM using Ser/Thr 05 as substrate incubated for 1 hr in presence of ATP at its Km concentration by Z'-LYTE assay relative to control
[9] = test system: A549; assay: Antiproliferative activity against human A549 cells assessed as inhibition of cell growth incubated for 72 hrs by Cell Titer Glo luminescent cell viability assay; assay type: functional, cell-based; conditions: A549, 72 h
[10] = test system: AU565; assay: Antiproliferative activity against human AU565 cells incubated for 72 hrs by ATPlite luminescence assay; assay type: functional, cell-based; conditions: AU565, 72 h
[11] = test system: C-33-A; assay: Antiproliferative activity against human C-33A cells incubated for 72 hrs by ATPlite luminescence assay; assay type: functional, cell-based
[12] = target: Voltage-gated inwardly rectifying potassium channel KCNH2 (Homo sapiens, UniProt Q12809); assay: Inhibition of human ERG expressed in CHO cells at -80 mV holding potential by IonWorks patch-clamp electrophysiology assay
[13] = test system: FaDu; assay: Antiproliferative activity against human FaDU cells assessed as inhibition of cell growth incubated for 72 hrs by Cell Titer Glo luminescent cell viability assay; assay type: functional, cell-based
[14] = test system: CAL-27; assay: Antiproliferative activity against human CAL27 cells; assay type: functional, cell-based
[15] = test system: K562; assay: Antiproliferative activity against human K562 cells assessed as inhibition of cell growth incubated for 72 hrs by Cell Titer Glo luminescent cell viability assay; assay type: functional, cell-based; conditions: K562, 72 h
[16] = Apparent permeability from apical to basolateral side in human Caco2 cells at 10 uM measured for 120 mins by LC-MS/MS analysis; conditions: Caco-2
[17] = Apparent permeability from basolateral to apical side in human Caco2 cells at 10 uM measured for 120 mins by LC-MS/MS analysis; conditions: Caco-2
[18] = target: MAP kinase-activated protein kinase 2 (Homo sapiens) (UniProt P49137); assay: Inhibition of recombinant human His-tagged full length MAPKAPK2 expressed in Escherichia coli expression system at 500 nM using Ser/Thr 04 as substrate incubated for 1 hr in presence of ATP at its Km concentration by Z'-LYTE assay relative to control
[19] = Metabolic stability in pooled human liver microsomes assessed as half life at 3 uM measured up to 45 mins in presence of NADPH by LC-MS/MS analysis; assay type: ADME, Microsome; conditions: pooled liver microsomes
[20] = test system: BXPC-3; assay: Antiproliferative activity against human BXPC-3 cells measured for 96 hrs by sytox green dye staining based proliferation assay; assay type: functional, cell-based; conditions: BXPC-3, 96 h
[21] = test system: PC-9; assay: Antiproliferative activity against human PC9 cells measured for 96 hrs by sytox green dye staining based proliferation assay; assay type: functional, cell-based; conditions: PC-9, 96 h
[22] = Protein binding in plasma (unknown origin) assessed as unbound fraction at 5 uM by LC-MS/MS based equilibrium dialysis analysis

Sequence of Dual specificity mitogen-activated protein kinase kinase 1 (Homo sapiens) (Q02750 whole entry, the tested form may be a part): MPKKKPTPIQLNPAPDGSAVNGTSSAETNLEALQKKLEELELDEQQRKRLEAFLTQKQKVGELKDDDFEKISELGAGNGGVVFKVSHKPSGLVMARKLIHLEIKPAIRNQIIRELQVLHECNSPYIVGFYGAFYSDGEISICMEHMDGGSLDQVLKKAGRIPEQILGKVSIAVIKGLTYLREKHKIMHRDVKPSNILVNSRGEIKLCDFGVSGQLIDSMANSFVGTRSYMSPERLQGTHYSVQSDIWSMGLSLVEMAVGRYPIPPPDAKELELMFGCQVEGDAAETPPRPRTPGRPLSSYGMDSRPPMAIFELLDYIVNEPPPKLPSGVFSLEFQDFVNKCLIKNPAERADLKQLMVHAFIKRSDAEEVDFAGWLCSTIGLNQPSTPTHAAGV
T2 sequence (P00533 whole entry): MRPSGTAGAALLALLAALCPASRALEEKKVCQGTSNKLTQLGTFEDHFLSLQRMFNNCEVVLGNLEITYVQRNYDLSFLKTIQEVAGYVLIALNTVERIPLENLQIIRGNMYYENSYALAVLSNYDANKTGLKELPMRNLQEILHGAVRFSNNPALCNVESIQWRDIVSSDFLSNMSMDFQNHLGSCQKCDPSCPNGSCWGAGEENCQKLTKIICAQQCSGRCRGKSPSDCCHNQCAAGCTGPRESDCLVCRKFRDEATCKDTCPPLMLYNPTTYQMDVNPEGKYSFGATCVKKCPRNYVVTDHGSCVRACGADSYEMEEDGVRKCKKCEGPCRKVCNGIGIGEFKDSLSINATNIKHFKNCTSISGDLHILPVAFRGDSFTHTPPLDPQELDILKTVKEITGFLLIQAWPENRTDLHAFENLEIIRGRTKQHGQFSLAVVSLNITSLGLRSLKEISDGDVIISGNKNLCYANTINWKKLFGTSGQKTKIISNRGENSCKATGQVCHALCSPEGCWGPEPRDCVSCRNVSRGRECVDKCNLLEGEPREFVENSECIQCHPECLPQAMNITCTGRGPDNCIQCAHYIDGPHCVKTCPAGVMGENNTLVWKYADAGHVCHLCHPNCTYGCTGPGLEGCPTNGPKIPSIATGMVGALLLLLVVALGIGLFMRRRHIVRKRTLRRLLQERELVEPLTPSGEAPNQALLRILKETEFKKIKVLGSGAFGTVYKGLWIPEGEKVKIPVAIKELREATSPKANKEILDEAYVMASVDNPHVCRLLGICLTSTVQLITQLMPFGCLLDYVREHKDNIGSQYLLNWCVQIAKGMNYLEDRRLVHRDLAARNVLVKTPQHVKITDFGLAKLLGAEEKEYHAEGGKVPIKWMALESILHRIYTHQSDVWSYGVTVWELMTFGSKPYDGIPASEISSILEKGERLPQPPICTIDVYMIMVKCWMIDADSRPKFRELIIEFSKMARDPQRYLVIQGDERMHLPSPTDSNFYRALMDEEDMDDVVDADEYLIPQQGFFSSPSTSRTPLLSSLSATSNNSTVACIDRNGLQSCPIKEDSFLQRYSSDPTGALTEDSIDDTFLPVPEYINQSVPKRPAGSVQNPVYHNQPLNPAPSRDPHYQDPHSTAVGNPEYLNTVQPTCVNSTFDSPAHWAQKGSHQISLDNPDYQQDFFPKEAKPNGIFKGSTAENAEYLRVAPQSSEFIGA
Sequence of Tyrosine-protein kinase Yes (Homo sapiens) (P07947 2-543 limits assumed): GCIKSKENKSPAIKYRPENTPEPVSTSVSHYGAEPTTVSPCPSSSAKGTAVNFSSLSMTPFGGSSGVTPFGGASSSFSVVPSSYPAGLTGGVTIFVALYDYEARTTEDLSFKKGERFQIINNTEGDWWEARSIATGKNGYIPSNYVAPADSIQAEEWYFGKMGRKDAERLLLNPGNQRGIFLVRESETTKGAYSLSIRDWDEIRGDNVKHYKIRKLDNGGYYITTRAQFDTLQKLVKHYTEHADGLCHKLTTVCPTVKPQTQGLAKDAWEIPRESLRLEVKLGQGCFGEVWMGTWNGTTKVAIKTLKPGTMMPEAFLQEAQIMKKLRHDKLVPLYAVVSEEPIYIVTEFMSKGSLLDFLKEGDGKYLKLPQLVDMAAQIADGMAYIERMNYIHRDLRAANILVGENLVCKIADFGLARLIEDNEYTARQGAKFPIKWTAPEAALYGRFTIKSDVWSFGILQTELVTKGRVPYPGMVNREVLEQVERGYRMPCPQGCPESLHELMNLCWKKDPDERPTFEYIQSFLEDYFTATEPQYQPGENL
Sequence of Vascular endothelial growth factor receptor 1 (Homo sapiens) (P17948 whole entry, the tested form may be a part): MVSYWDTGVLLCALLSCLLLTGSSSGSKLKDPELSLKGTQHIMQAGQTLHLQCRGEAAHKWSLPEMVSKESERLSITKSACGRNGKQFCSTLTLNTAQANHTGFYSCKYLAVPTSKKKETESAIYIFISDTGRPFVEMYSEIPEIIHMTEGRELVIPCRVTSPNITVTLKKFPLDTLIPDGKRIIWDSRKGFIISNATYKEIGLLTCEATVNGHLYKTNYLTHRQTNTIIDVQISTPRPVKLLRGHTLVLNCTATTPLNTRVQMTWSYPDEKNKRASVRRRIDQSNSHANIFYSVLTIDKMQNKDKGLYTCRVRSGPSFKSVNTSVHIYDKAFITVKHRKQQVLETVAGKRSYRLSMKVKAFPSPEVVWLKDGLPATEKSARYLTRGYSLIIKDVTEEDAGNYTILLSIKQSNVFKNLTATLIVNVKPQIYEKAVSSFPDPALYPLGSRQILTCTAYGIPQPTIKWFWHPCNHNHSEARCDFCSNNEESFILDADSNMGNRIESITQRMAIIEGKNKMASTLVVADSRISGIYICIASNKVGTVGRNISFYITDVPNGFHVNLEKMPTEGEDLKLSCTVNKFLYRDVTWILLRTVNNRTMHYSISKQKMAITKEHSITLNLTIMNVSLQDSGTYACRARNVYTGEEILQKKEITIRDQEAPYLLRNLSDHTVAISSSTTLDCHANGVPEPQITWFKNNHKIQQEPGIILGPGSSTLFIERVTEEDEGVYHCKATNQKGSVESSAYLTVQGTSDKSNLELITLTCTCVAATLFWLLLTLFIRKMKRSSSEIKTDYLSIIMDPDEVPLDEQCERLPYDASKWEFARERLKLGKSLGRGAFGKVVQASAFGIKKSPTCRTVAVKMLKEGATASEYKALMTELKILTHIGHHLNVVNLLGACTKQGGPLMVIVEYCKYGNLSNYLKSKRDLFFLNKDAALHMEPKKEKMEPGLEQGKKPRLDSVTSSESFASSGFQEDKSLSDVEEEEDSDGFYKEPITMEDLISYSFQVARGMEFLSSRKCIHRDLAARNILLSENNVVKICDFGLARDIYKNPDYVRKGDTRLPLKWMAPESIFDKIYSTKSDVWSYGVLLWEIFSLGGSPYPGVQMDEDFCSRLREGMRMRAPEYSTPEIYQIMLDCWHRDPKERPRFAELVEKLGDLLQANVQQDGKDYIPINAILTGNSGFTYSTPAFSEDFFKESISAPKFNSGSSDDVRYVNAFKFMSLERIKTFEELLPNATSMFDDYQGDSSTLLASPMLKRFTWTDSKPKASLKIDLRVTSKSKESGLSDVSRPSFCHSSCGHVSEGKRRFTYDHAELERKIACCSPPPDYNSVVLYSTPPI
Sequence of Platelet-derived growth factor receptor alpha (Homo sapiens) (P16234 whole entry, the tested form may be a part): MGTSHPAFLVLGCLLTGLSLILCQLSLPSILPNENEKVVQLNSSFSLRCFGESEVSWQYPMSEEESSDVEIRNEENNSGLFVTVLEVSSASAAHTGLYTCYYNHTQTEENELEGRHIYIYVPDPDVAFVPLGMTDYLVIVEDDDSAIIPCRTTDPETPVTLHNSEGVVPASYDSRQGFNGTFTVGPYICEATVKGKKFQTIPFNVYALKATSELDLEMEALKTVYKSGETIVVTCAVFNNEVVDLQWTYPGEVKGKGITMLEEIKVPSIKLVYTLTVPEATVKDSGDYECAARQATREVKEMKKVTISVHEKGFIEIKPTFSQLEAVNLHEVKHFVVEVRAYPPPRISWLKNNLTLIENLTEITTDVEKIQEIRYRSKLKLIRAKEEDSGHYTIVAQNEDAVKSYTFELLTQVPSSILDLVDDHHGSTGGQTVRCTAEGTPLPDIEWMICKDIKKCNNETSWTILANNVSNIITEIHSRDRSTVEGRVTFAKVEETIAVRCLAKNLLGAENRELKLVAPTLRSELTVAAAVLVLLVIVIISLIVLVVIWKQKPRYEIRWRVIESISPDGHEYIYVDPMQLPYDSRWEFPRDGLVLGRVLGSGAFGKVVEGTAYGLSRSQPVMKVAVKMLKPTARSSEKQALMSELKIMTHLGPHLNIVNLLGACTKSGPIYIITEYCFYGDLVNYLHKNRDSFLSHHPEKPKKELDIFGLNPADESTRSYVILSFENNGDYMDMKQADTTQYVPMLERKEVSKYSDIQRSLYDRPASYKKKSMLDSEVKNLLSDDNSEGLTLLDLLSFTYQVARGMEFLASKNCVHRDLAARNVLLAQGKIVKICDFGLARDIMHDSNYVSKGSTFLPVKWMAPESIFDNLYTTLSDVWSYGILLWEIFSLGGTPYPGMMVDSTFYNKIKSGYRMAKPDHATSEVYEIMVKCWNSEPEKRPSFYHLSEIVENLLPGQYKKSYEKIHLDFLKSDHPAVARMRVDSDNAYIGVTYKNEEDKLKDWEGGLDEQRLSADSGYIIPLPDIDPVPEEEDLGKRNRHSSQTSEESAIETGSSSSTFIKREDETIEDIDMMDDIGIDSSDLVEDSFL
Sequence of MAP kinase-activated protein kinase 2 (Homo sapiens) (P49137 whole entry, looked up): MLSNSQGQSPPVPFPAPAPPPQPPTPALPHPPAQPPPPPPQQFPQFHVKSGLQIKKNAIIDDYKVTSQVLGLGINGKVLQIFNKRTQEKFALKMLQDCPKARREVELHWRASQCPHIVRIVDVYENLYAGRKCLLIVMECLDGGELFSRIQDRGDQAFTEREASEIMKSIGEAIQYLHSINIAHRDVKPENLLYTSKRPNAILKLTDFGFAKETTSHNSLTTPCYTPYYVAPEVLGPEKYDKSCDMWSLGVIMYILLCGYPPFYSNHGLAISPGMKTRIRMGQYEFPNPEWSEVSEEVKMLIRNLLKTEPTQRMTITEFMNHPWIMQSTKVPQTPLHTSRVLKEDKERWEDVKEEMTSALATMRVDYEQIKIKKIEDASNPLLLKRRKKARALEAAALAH

Row | inhibition [1] [%] | inhibition [2] [%] | inhibition [3] [%] | inhibition [4] [%] | inhibition [5] [%] | inhibition [6] [%] | pIC50 [7] | pIC50 [9] | pIC50 [15] | Structure (SMILES) | pIC50 [10] | pIC50 [11] | pIC50 [13] | pIC50 [14] | pIC50 [20] | pIC50 [21] | also measured
1 | 13 | 10 | 3 | 56 | -8 | – | – | – | – | CCOc1ccccc1-c1cc2c(N[C@H](CO)c3ccccc3)ncnc2[nH]1 | – | – | – | – | – | – | –
2 | 48 | 13 | 12 | 81 | – | – | – | – | – | CN(C)CCNCc1ccc(-c2cc3c(N[C@H](CO)c4ccccc4)ncnc3[nH]2)cc1F | – | – | – | – | – | – | –
3 | 15 | -4 | 5 | 68 | 6 | 100 | 9.10 | – | – | COc1ccccc1-c1cc2c(N[C@H](CO)c3ccccc3)ncnc2[nH]1 | – | – | – | – | – | – | –
4 | – | – | – | – | – | – | – | < 4.00 | 4.26 | C#Cc1cccc(Nc2ncnc3cc(OCCOC)c(OCCOC)cc23)c1 [ERLOTINIB] | 5.48 | 6.05 | < 4.96 | 5.89 | 5.72 | > 7.00 | inhibition [8]: -5%; pIC50 [12]: < 4.60; Papp A→B at 2 h, 10 µM [16]: 38.8 ×10⁻⁶ cm/s; Papp B→A at 2 h, 10 µM [17]: 31 ×10⁻⁶ cm/s; inhibition [18]: -1%; half-life at 3 µM [19]: 31.7 min; fraction unbound at 5 µM [22]: 0.117
5 | 19 | -8 | 8 | 65 | – | 99 | 9.40 | < 4.00 | 4.82 | OC[C@@H](Nc1ncnc2[nH]c(-c3ccccc3)cc12)c1ccccc1 | 5.60 | 6.15 | < 4.48 | 5.57 | 4.82 | > 7.00 | –
6 | 13 | 5 | -4 | 50 | – | – | – | – | – | OCC[C@@H](Nc1ncnc2[nH]c(-c3ccccc3)cc12)c1ccccc1 | – | – | – | – | – | – | –
